Key:
[1] = test system: Efflux type multidrug resistant wheat Septoria leaf blotch fungus (Zymoseptoria tritici), fungus strain St 106-6; assay: Control test against efflux type multidrug resistant wheat Septoria leaf blotch fungus (titer plate growth, absorbance at 600 nm); type: cell-based
Experimental: (§1) Control test against Efflux type multidrug resistant wheat Septoria leaf blotch fungus (Zymoseptoria tritici)
(§2) Each of the present compound (1) and tolnaftrate was diluted with dimethyl sulfoxide to a prescribed concentration thereof, respectively. Each of the chemical solutions comprising the respective testing compound was dispensed into a titer plate (with 96 wells) in the amount of 1 μL. […] The plate was cultured at 18° C. for 4 days, thereby allowing each wheat Septoria leaf blotch fungus to undergo proliferation, and the absorbance at 600 nm of each well of the titer plate was then measured to determine a degree of growth of the wheat Septoria leaf blotch fungus (treated group). […]
(§3) The efficacy was calculated from the degree of the growth by the below-mentioned “Equation 1”, and then each EC50 value of the testing compound, respectively against the efflux type multidrug resistant fungus strains and the wild-type fungus strain was calculated. Next, as shown in the below-mentioned “Equation 2”, an EC50 value ratio was calculated by dividing an EC50 value against the efflux type multidrug resistant fungus strains by an EC50 value against the wild-type fungus strain. […]

[2] = test system: efflux type multidrug resistant fungus strain 3: ABC transporter and MFS transporter-overexpressing fungus strain (Bc-103) of grapes gray mold fungus (Botrytis …); assay: Control test against efflux type multidrug resistant grapes gray mold fungus, strain 3; type: cell-based, Botrytis cinerea
Experimental: (§4) Control Test Against Efflux Type Multidrug Resistant Grapes Gray Mold Fungus (Botrytis cinerea)
(§5) Each of the present compound (1), fludioxonil and tolnaftrate was diluted with dimethyl sulfoxide to a prescribed concentration thereof, respectively. Each of the chemical solutions comprising the respective testing compound was dispensed into a titer plate (with 96 wells) in the amount of 1 μL. […] The plate was cultured at 18° C. for 2 days, thereby allowing each grapes gray mold fungus to undergo proliferation, and the absorbance at 600 nm of each well of the titer plate was then measured to determine a degree of growth of each of the grapes gray mold fungi (treated group). […]
(§6) The efficacy was calculated from the degree of the growth by the below-mentioned “Equation 1”, and then each EC50 value of the testing compound, respectively against the efflux type multidrug resistant fungus strains and the wild-type fungus strain was calculated. Also, an EC50 value ratio was calculated by the above-mentioned “Equation 2”.

[3] = test system: efflux type multidrug resistant fungus strain 1: ABC transporter-overexpressing fungus strain (Bc-56) of grapes gray mold fungus (Botrytis cinerea); assay: Control test against efflux type multidrug resistant grapes gray mold fungus, strain 1; type: cell-based
Experimental: as §4, §5, §6

[4] = test system: efflux type multidrug resistant fungus strain 2: MFS transporter-overexpressing fungus strain (Bc-107) of grapes gray mold fungus (Botrytis cinerea); assay: Control test against efflux type multidrug resistant grapes gray mold fungus, strain 2; type: cell-based
Experimental: as §4, §5, §6

[5] = test system: grapes gray mold fungus (Botrytis cinerea) wild-type fungus strain; assay: Control test against grapes gray mold fungus, wild-type fungus strain (titer plate growth, absorbance at 600 nm); type: cell-based; details: PDB culture media, 18° C., 2 days
Experimental: as §4, §5, §6

[6] = test system: wheat Septoria leaf blotch fungus (Zymoseptoria tritici) wild-type fungus strain; assay: Control test against wheat Septoria leaf blotch fungus, wild-type fungus strain (titer plate growth, absorbance at 600 nm); type: cell-based; details: PDB culture media, 18° C., 4 days
Experimental: as §1, §2, §3

Cn1c(=O)c2sc3c(=O)n(C)c(=O)c3sc2c1=O [Present compound (1)]
EC50 value ratio ([1]; EC50 against efflux type multidrug resistant fungus strain / EC50 against wild-type fungus strain, Zymoseptoria tritici): 1.1
EC50 value, Efflux type multidrug resistant fungus strain ([1]; Zymoseptoria tritici St 106-6, PDB culture media, 18° C., 4 days): 1.3 ppm
EC50 value, Efflux type multidrug resistant fungus strain 3 ([2]; Botrytis cinerea Bc-103 (ABC and MFS transporter-overexpressing), 18° C., 2 days): 2.4 ppm
EC50 value ratio 3 ([2]; EC50 against efflux type multidrug resistant strain 3 / EC50 against wild-type, Botrytis cinerea): 1.3
EC50 value, Efflux type multidrug resistant fungus strain 1 ([3]; Botrytis cinerea Bc-56 (ABC transporter-overexpressing), 18° C., 2 days): 1.7 ppm
EC50 value ratio 1 ([3]; EC50 against efflux type multidrug resistant strain 1 / EC50 against wild-type, Botrytis cinerea): 0.89
EC50 value, Efflux type multidrug resistant fungus strain 2 ([4]; Botrytis cinerea Bc-107 (MFS transporter-overexpressing), 18° C., 2 days): 1.7 ppm
EC50 value ratio 2 ([4]; EC50 against efflux type multidrug resistant strain 2 / EC50 against wild-type, Botrytis cinerea): 0.89
EC50 value, Wild-type fungus strain [5]: 1.9 ppm
EC50 value, Wild-type fungus strain [6]: 1.2 ppm

Reference: patent publication US11116219B2, “Method for controlling discharge-type multidrug resistant plant diseases” (SUMITOMO CHEMICAL COMPANY, LIMITED, priority 2017, dated 2021)
